Tests used:
NCI-H460 = assay: Growth of cancer cells (Cell Titer-Glo viability), NCI-H460; assay type: cell-based; conditions: Homo sapiens; NCI-H460 (wild-type EGFR), 72 hrs
From the text: (§1) By testing the effect of the novel kinase inhibitors on the proliferation of cancer cells, the selectivity of the compounds of the present disclosure in inhibiting the proliferation of cancer cells was further assessed. In this example, human non-small cell lung cancer cell NCI-H1975 (expressing EGFR L858R/T790M double mutant gene), human skin squamous carcinoma cell A431 (expressing wild-type EGFR gene), non-small cell lung cancer NCI-H3255 (expressing EGFR L858R mutant gene), non-small cell lung cancer cell NCI-H3122 (expressing ALK gene), human non-small cell lung cancer cell A549 (expressing wild-type EGFR gene), human non-small cell lung cancer cell NCI-H2122 (expressing wild-type EGFR gene), human non-small cell lung cancer cell NCI-H460 (expressing wild-type EGFR gene), human non-small cell lung cancer cell PC-9 (expressing EGFR delE746_A750 mutant gene), Chinese hamster ovary cell CHO (Cricetulus griseus, hamster, Chinese, ovary), Chinese hamster lung cell CHL, human non-small cell lung cancer cell HCC827 (expressing mutant EGFR del19 gene), human lung adenocarcinoma cell HCC4006 (expressing mutant EGFR del19 gene), human non-small cell lung cancer cell NCI-H2228 (expressing wild-type ALK gene), and mouse primary B cell BaF3 were used, and the above cells were all purchased from ATCC (US). In addition, mouse BaF3-TEL-ALK (stably expressing ALK kinase), mouse BaF3-ALK-F1174L (stably expressing mutant ALK F1174L kinase), mouse BaF3-NPM-ALK (stably expressing ALK kinase), mouse BaF3-TEL-EGFR (stably expressing EGFR kinase), mouse BaF3-TEL-EGFR-T790M (stably expressing EGFR T790M mutant kinase), mouse BaF3-FL-EGFR-Del19 (stably expressing EGFR delE746_A750 mutant kinase), mouse BaF3-TEL-EGFR-L858R (stably expressing EGFR L858R mutant kinase), mouse BaF3-FL-EGFR-T790M-L858R (stably expressing EGFR T790M/L858R mutant kinase), mouse BaF3-TEL-INSR (stably expressing INSR protein), mouse BaF3-TEL-IGF1R (stably expressing IGF1R Protein), mouse BaF3-EML4-ALK (stably expressing EML4-ALK Protein), mouse BaF3-TEL-JAK3 (stably expressing JAK3 kinase protein), mouse BaF3-TEL-CSF1R (stably expressing CSF1R protein), and mouse BaF3-TEL-ALK-F1196M (stably expressing ALK F1196M mutant kinase) were also used in this example. The above cell lines were all established by our laboratory via the following process: kinase proteins or protein domain sequences of human ALK, ALK F1174L, EGFR, EGFR T790M, EGFR delE746_A750, EGFR L858, EGFR T790M/L858R, INSR, IGF1R, EML4-ALK, JAK3, CSF1R, ALK F1196M were amplified respectively by PCR, and were respectively inserted into MSCV-Puro vector (Clontech) with N-terminal TEL fragments and/or NPM fragments and/or TPR fragments; the resultants were stably transfected into mouse BaF3 cells by the means of retrovirus, and the IL-3 growth factors were removed, and eventually the ALK, ALK F1174L, EGFR, EGFR T790M, EGFR delE746_A750, EGFR L858, EGFR T790M/L858R, INSR, IGF1R, EML4-ALK, JAK3, CSF1R, ALK F1196M-transferred protein dependent cell lines were obtained.
(§2) The number of viable cells was determined quantitatively by a microplate reader using Cell Titer-Glo® (Promega, US) chemiluminescence cell viability assay kit.

NCI-H2122 = assay: Growth of cancer cells (Cell Titer-Glo viability), NCI-H2122; assay type: cell-based; conditions: Homo sapiens; NCI-H2122 (wild-type EGFR), 72 hrs
From the text: as §1, §2

BaF3-TEL-EGFR-T790M = assay: Cell growth (Cell Titer-Glo viability), BaF3-TEL-EGFR-T790M; assay type: cell-based; conditions: Mus musculus; BaF3-TEL-EGFR-T790M (EGFR T790M mutant kinase), 72 hrs
From the text: as §1, §2

BaF3-NPM-ALK = assay: Cell growth (Cell Titer-Glo viability), BaF3-NPM-ALK; assay type: cell-based; conditions: Mus musculus; BaF3-NPM-ALK (stably expressing ALK kinase), 72 hrs
From the text: as §1, §2

HCC4006 = assay: Growth of cancer cells (Cell Titer-Glo viability), HCC4006; assay type: cell-based; conditions: Homo sapiens; HCC4006 (mutant EGFR del19), 72 hrs
From the text: as §1, §2

BaF3-ALK-F1174L = assay: Cell growth (Cell Titer-Glo viability), BaF3-ALK-F1174L; assay type: cell-based; conditions: Mus musculus; BaF3-ALK-F1174L (mutant ALK F1174L kinase), 72 hrs
From the text: as §1, §2

NCI-H3255 = assay: Growth of cancer cells (Cell Titer-Glo viability), NCI-H3255; assay type: cell-based; conditions: Homo sapiens; NCI-H3255 (EGFR L858R mutant), 72 hrs
From the text: as §1, §2

A431 = assay: Growth of cancer cells (Cell Titer-Glo viability), A431; assay type: cell-based; conditions: Homo sapiens, A-431; A431 (wild-type EGFR), 72 hrs; read-out: GI50
From the text: as §1, §2

NCI-H3122 = assay: Growth of cancer cells (Cell Titer-Glo viability), NCI-H3122; assay type: cell-based; conditions: Homo sapiens; NCI-H3122 (expressing ALK gene), 72 hrs; read-out: GI50
From the text: as §1, §2

A549 = assay: Growth of cancer cells (Cell Titer-Glo viability), A549; assay type: cell-based; conditions: Homo sapiens; A549 (wild-type EGFR), 72 hrs
From the text: as §1, §2

PC-9 = assay: Growth of cancer cells (Cell Titer-Glo viability), PC-9; assay type: cell-based; conditions: Homo sapiens; PC-9 (EGFR delE746_A750 mutant), 72 hrs
From the text: as §1, §2

NCI-H2228 = assay: Growth of cancer cells (Cell Titer-Glo viability), NCI-H2228; assay type: cell-based; conditions: Homo sapiens; NCI-H2228 (wild-type ALK), 72 hrs
From the text: as §1, §2

BaF3-TEL-EGFR = assay: Cell growth (Cell Titer-Glo viability), BaF3-TEL-EGFR; assay type: cell-based; conditions: Mus musculus; BaF3-TEL-EGFR (stably expressing EGFR kinase), 72 hrs
From the text: as §1, §2

HCC827 = assay: Growth of cancer cells (Cell Titer-Glo viability), HCC827; assay type: cell-based; conditions: Homo sapiens; HCC827 (mutant EGFR del19), 72 hrs
From the text: as §1, §2

BaF3-TEL-ALK = assay: Cell growth (Cell Titer-Glo viability), BaF3-TEL-ALK; assay type: cell-based; conditions: Mus musculus; BaF3-TEL-ALK (stably expressing ALK kinase), 72 hrs
From the text: as §1, §2

BaF3 = assay: Cell growth (Cell Titer-Glo viability), BaF3; assay type: cell-based; conditions: BaF3 mouse primary B cell, 72 hrs
From the text: as §1, §2

BaF3-FL-EGFR-Del19 = assay: Cell growth (Cell Titer-Glo viability), BaF3-FL-EGFR-Del19; assay type: cell-based; conditions: Mus musculus; BaF3-FL-EGFR-Del19 (EGFR delE746_A750 mutant kinase), 72 hrs
From the text: as §1, §2

NCI-H1975 = assay: Growth of cancer cells (Cell Titer-Glo viability), NCI-H1975; assay type: cell-based; conditions: Homo sapiens; NCI-H1975 (EGFR L858R/T790M double mutant), 72 hrs
From the text: as §1, §2

CHO = assay: Cell growth (Cell Titer-Glo viability), CHO; assay type: cell-based, Chinese hamster; conditions: Cricetulus griseus; CHO Chinese hamster ovary cell, 72 hrs; read-out: GI50
From the text: as §1, §2

CHL = assay: Cell growth (Cell Titer-Glo viability), CHL; assay type: cell-based, Chinese hamster; conditions: Cricetulus griseus; CHL Chinese hamster lung cell, 72 hrs; read-out: GI50
From the text: as §1, §2

SMILES | GI50 (NCI-H460) [µM] | GI50 (NCI-H2122) [µM] | GI50 (BaF3-TEL-EGFR-T790M) [µM] | GI50 (BaF3-NPM-ALK) [µM] | GI50 (HCC4006) [µM] | GI50 (BaF3-ALK-F1174L) [µM] | GI50 (NCI-H3255) [µM] | GI50 (A431) [µM] | GI50 (NCI-H3122) [µM] | GI50 (A549) [µM] | GI50 (PC-9) [µM] | GI50 (NCI-H2228) [µM] | GI50 (BaF3-TEL-EGFR) [µM] | GI50 (HCC827) [µM] | GI50 (BaF3-TEL-ALK) [µM] | GI50 (BaF3) [µM] | GI50 (BaF3-FL-EGFR-Del19) [µM] | GI50 (NCI-H1975) [µM] | GI50 (CHO) [µM] | GI50 (CHL) [µM]
COc1cc(N2CCC(N3CCN(C)CC3)CC2)ccc1Nc1ncc(Cl)c(Nc2ccccc2S(=O)(=O)C(C)C)n1 [TAE-684, reference compound] | 0.47 | 0.31 | 0.42 | < 0.003 | 0.44 | 0.14 | 1 | 1.3 | < 0.0003 | 1.5 | 0.54 | 0.58 | 0.56 | 0.37 | < 0.0003 |  |  |  |  | 
C=CC(=O)Nc1cc(Nc2ncc(Cl)c(Nc3ccccc3S(=O)(=O)C(C)C)n2)c(OC)cc1N1CCC(N2CCN(C)CC2)CC1 [Compound 8, N-(5-(5-chloro-4-(2-(isopropylsulfonyl)phenylamino)pyrimidin-2-ylamino)-4-methoxy-2-(4-(4-methylpiperazin-1-yl)piperidin-1-yl)phenyl)acrylamide] | 0.66 | 0.2 | 0.046 | < 0.003 | 0.014 | 0.029 | 0.11 | 0.37 | < 0.0003 |  | 0.053 | 0.35 | 0.43 | 0.0027 | < 0.0003 | 0.46 | 0.002 | 0.045 | 0.46 | 0.8
C=CC(=O)Nc1cc(Nc2ncc(Cl)c(Nc3ccccc3S(=O)(=O)C(C)C)n2)c(OC)cc1N1CCN(S(C)(=O)=O)CC1 [Compound 5, N-(5-(5-chloro-4-(2-(isopropylsulfonyl)phenylamino)pyrimidin-2-ylamino)-4-methoxy-2-(4-(methylsulfonyl)piperazin-1-yl)phenyl)acrylamide] |  | 0.17 | 0.053 |  | 0.16 | 2.3 |  | 1.1 | < 0.0003 | 3.3 | 0.039 | 0.24 |  | 0.044 | 0.01 | 2.8 | 0.007 | 0.04 | 5.2 | 2.3
C=CC(=O)Nc1cc(Nc2ncc(C)c(Nc3ccccc3S(=O)(=O)C(C)C)n2)c(OC)cc1N1CCC(N2CCN(C)CC2)CC1 [Compound 24, N-(5-(4-(2-(isopropylsulfonyl)phenylamino)-5-methylpyrimidin-2-ylamino)-4-methoxy-2-(4-(4-methylpiperazin-1-yl)piperidin-1-yl)phenyl)acrylamide] | 0.68 | 0.23 | 0.1 | 0.002 | 0.014 | 0.016 | 0.13 | 0.44 | < 0.0003 |  | 0.05 | 0.33 | 0.81 | 0.0062 | < 0.0003 | 1.6 | 0.002 | 0.059 | 1.7 | 0.66
CCC(=O)Nc1cc(Nc2ncc(Cl)c(Nc3ccccc3S(=O)(=O)C(C)C)n2)c(OC)cc1N1CCC(N2CCN(C)CC2)CC1 [Compound 30, N-(5-(5-chloro-4-(2-(isopropylsulfonyl)phenylamino)pyrimidin-2-ylamino)-4-methoxy-2-(4-(4-methylpiperazin-1-yl)piperidin-1-yl)phenyl)propionamide] | 0.44 | 0.15 | 0.23 | < 0.003 | 0.26 | 0.073 | 0.64 | 0.84 | < 0.0003 |  | 0.053 | 0.28 | 0.41 | 0.15 | < 0.0003 | 0.47 | 0.12 | 0.88 | 1.9 | 0.73
C=CC(=O)Nc1cc(Nc2ncc(Cl)c(Nc3ccccc3S(=O)(=O)C(C)C)n2)c(OC)cc1N1CCCCC1 [Compound 6, N-(5-(5-chloro-4-(2-(isopropylsulfonyl)phenylamino)pyrimidin-2-ylamino)-4-methoxy-2-(piperidin-1-yl)phenyl) acrylamide] |  | 0.88 | 0.018 |  | 0.26 | 0.31 |  | 0.54 | 0.029 | 0.33 | 0.027 | 0.2 |  | 0.051 | 0.015 | 0.34 | 0.006 | 0.24 | 0.36 | > 10
